Results: ChEMBL document CHEMBL1159050, “2-Arylbenzoxazoles as CETP inhibitors: substitution and modification of the alpha-alkoxyamide moiety” (Bioorg Med Chem Lett, 2010)
pIC50: −log10 of the molar value.

Experiments:
[1] = target: T1, Cholesteryl ester transfer protein (Homo sapiens, UniProt P11597); experiment: Inhibition of CETP assessed as cholesteryl ester transfer activity
T1 sequence (P11597 whole entry): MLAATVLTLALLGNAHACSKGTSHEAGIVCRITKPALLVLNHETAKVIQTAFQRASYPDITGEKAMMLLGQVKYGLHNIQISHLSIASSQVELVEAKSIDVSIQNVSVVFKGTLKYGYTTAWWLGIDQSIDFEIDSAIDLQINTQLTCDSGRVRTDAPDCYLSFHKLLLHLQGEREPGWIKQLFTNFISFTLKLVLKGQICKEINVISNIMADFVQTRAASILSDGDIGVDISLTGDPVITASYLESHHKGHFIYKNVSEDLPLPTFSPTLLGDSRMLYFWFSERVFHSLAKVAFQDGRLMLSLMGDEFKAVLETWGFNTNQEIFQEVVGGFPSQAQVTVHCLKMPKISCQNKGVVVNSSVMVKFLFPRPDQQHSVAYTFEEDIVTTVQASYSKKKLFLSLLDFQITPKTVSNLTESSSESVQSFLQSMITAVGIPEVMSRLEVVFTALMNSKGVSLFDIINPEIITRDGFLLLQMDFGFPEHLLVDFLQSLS

[2] = Oral bioavailability in mouse; assay type: ADME, organism-based; conditions: in vivo
[3] = Clearance in mouse; assay type: ADME, organism-based; conditions: in vivo
[4] = Half life in mouse; assay type: ADME, organism-based; conditions: in vivo

| pIC50 [1] | SMILES | further results |
| --- | --- | --- |
| 6.89 | Cc1ccccc1OCC(=O)Nc1ccc(-c2nc3cc(C#N)ccc3o2)cc1 |  |
| 5.96 | Cc1ccccc1OCC(=O)Nc1ccc(-c2nc3cc(Cl)ccc3o2)cc1 |  |
| 5.34 | COc1ccc(OCC(=O)Nc2ccc(-c3nc4cc(Cl)ccc4o3)cc2)cc1 |  |
| < 4.52 | O=C(Nc1ccc(-c2nc3cc(Cl)ccc3o2)cc1)OCc1ccccc1 |  |
| 7.03 | N#Cc1ccc2oc(-c3ccc(NC(=O)COC(C(F)(F)F)C(F)(F)F)cc3)nc2c1 | bioavailability [2]: 4% |
| 7.29 | CC(C)(OCC(=O)Nc1ccc(-c2nc3cc(C#N)ccc3o2)cc1)C(F)(F)F |  |
| 6.82 | N#Cc1ccc2oc(-c3ccc(NC(=O)COC(C(F)(F)F)(C(F)(F)F)C(F)(F)F)cc3)nc2c1 |  |
| 5.37 | O=C(COc1ccccc1)Nc1ccc(-c2nc3cc(Cl)ccc3o2)cc1 |  |
| 6.88 | CC(C)(C)OCC(=O)Nc1ccc(-c2nc3cc(C#N)ccc3o2)cc1 |  |
| 4.89 | COc1cccc(OCC(=O)Nc2ccc(-c3nc4cc(Cl)ccc4o3)cc2)c1 |  |
| 4.58 | O=C(COc1cccc([N+](=O)[O-])c1)Nc1ccc(-c2nc3cc(Cl)ccc3o2)cc1 |  |
| < 4.52 | Cc1ccc(OCC(=O)Nc2ccc(-c3nc4cc(Cl)ccc4o3)cc2)cc1 |  |
| 5.66 | O=C(COc1ccc([N+](=O)[O-])cc1)Nc1ccc(-c2nc3cc(Cl)ccc3o2)cc1 |  |
| 5.09 | O=C(CNc1ccccc1)Nc1ccc(-c2nc3cc(Cl)ccc3o2)cc1 |  |
| 7.36 | CC(OCC(=O)Nc1ccc(-c2nc3cc(C#N)ccc3o2)cc1)(C(F)(F)F)C(F)(F)F |  |
| 5.59 | CCc1ccccc1OCC(=O)Nc1ccc(-c2nc3cc(Cl)ccc3o2)cc1 |  |
| < 4.52 | Cc1ccccc1OCC(=O)N(C)c1ccc(-c2nc3cc(Cl)ccc3o2)cc1 |  |
| < 4.52 | CC(Oc1ccccc1)C(=O)Nc1ccc(-c2nc3cc(Cl)ccc3o2)cc1 (stereo not drawn) |  |
| < 4.52 | N#Cc1cccc(OCC(=O)Nc2ccc(-c3nc4cc(Cl)ccc4o3)cc2)c1 |  |
| 5.57 | CCCc1ccccc1OCC(=O)Nc1ccc(-c2nc3cc(Cl)ccc3o2)cc1 |  |
| 5.19 | O=C(COc1ccccc1C(F)(F)F)Nc1ccc(-c2nc3cc(Cl)ccc3o2)cc1 |  |
| 5.67 | O=C(COc1ccccc1Cl)Nc1ccc(-c2nc3cc(Cl)ccc3o2)cc1 |  |
| 5.70 | O=C(COc1cccc(F)c1)Nc1ccc(-c2nc3cc(Cl)ccc3o2)cc1 |  |
| < 4.52 | N#Cc1ccc(OCC(=O)Nc2ccc(-c3nc4cc(Cl)ccc4o3)cc2)cc1 |  |

| pIC50 [1] | SMILES | further results |
| --- | --- | --- |
| 5.75 | O=C(COc1ccc(F)cc1)Nc1ccc(-c2nc3cc(Cl)ccc3o2)cc1 |  |
| < 4.52 | O=C(CSc1ccccc1)Nc1ccc(-c2nc3cc(Cl)ccc3o2)cc1 |  |
| 5.17 | O=C(COc1ccc(Cl)cc1)Nc1ccc(-c2nc3cc(Cl)ccc3o2)cc1 |  |
| 5.90 | O=C(COc1cccc(Cl)c1)Nc1ccc(-c2nc3cc(Cl)ccc3o2)cc1 |  |
| < 4.52 | O=C(NCc1ccccc1)Nc1ccc(-c2nc3cc(Cl)ccc3o2)cc1 |  |
| 6.30 | N#Cc1ccc2oc(-c3ccc(NC(=O)COCc4ccccc4C(F)(F)F)cc3)nc2c1 |  |
| 5.86 | CCOCC(=O)Nc1ccc(-c2nc3cc(C#N)ccc3o2)cc1 |  |
| 6.21 | CC(C)OCC(=O)Nc1ccc(-c2nc3cc(C#N)ccc3o2)cc1 |  |
| 5.75 | O=C(COc1cccc(C(F)(F)F)c1)Nc1ccc(-c2nc3cc(Cl)ccc3o2)cc1 |  |
| 5.18 | O=C(COCc1ccccc1)Nc1ccc(-c2nc3cc(Cl)ccc3o2)cc1 |  |
| 4.74 | O=C(CNCc1ccccc1)Nc1ccc(-c2nc3cc(Cl)ccc3o2)cc1 |  |
| < 4.52 | N#Cc1ccccc1OCC(=O)Nc1ccc(-c2nc3cc(Cl)ccc3o2)cc1 |  |
| < 4.52 | O=C(COc1ccccc1F)Nc1ccc(-c2nc3cc(Cl)ccc3o2)cc1 |  |
| < 4.52 | COc1ccccc1OCC(=O)Nc1ccc(-c2nc3cc(Cl)ccc3o2)cc1 |  |
| 4.12 | c1ccc(OCCNc2ccc(-c3nc4ccccc4o3)cc2)cc1 |  |
| 6.05 | CC(C)OCCNc1ccc(-c2nc3cc(C#N)ccc3o2)cc1 | bioavailability [2]: 30% |
| 6.82 | CC(OCCNc1ccc(-c2nc3cc(C#N)ccc3o2)cc1)(C(F)(F)F)C(F)(F)F | bioavailability [2]: 20%; clearance [3]: 31 mL/min/kg; half-life [4]: 7.3 h |
| 5.36 | O=C(COc1ccccc1[N+](=O)[O-])Nc1ccc(-c2nc3cc(Cl)ccc3o2)cc1 |  |
| 6.09 | O=C(COc1ccc(C(F)(F)F)cc1)Nc1ccc(-c2nc3cc(Cl)ccc3o2)cc1 |  |
| < 4.52 | Cc1ccccc1CNC(=O)c1ccc(-c2nc3cc(Cl)ccc3o2)cc1 |  |
| 5.93 | Cc1ccccc1COCC(=O)Nc1ccc(-c2nc3cc(C#N)ccc3o2)cc1 |  |
| < 4.52 | O=S(=O)(Cc1ccccc1)Nc1ccc(-c2nc3cc(Cl)ccc3o2)cc1 |  |
| 4.71 | Cc1cccc(OCC(=O)Nc2ccc(-c3nc4cc(Cl)ccc4o3)cc2)c1 |  |
| < 4.52 | O=C(CCc1ccccc1)Nc1ccc(-c2nc3cc(Cl)ccc3o2)cc1 |  |
